In patent US20100298300A1, “TRIAZOLOPYRAZINE COMPOUNDS USEFUL FOR THE TREATMENT OF DEGENERATIVE & INFLAMMATORY DISEASES” (priority 2006, published 2010):

Tests used:
[1] = system: MMP1 expression by activated primary synovial fibroblasts; assay: 'MMP assay': MMP1 expression by complex trigger activated synovial fibroblasts (MMP1 ELISA); assay type: cell-based; conditions: Homo sapiens, Fibroblast; Table 3; RASFs, complex trigger, 48 hrs, MMP1 ELISA
[2] = system: TNFα release by human PBMCs; assay: Cytokine release by LPS stimulated human PBMCs (TNFα ELISA); assay type: cell-based; conditions: PBMC, 24 h, Table 5, LPS 1 μg/mL
Experimental: For the assay PBMCs are seeded at 2.5E6 cells/mL in 160 μL in 96-well plates (Nunc). Serial dilution of the test compounds are made first in DMSO (Sigma) and then diluted 50-fold in M199 medium (Gibco) containing 1% heat-inactivated FBS. Compounds are further 1/10 diluted in the assay plates to obtain final DMSO concentration of 0.2%. Cells are preincubated with the compounds for 1 hr at 37° C., 5% CO2. Then, cells are stimulated with LPS (Escherichia coli serotype 026:B6, Cat. No. L2654, Sigma) that is added in a volume of 20 μL to a final concentration of 1 μg/mL and cells are further cultured for 24 hr. The plates are centrifuged and the supernatant is collected and stored at −80° C. until analysis of appropriate dilutions in ELISAs.
After 4 hr incubation at RT, blocking buffer is removed and plates are washed once with PBST (1×PBS with 0.05% Tween-20 (Sigma)). Then, 40 μL of sample is transferred to the ELISA plates and plates are incubated at 4° C. […] After 2 h of incubation at RT, plates are washed as described above and 35 μL/well of a 1/2000 dilution of streptavidin-HRP conjugate (Cat. No. SNN2004, Biosource) in buffer D is added. After 45 min, plates are washed as described above and incubated for 5 min with 50 μL/well BM Chemiluminescence ELISA Substrate POD (Roche). Readout is performed on the Luminoscan Ascent Luminometer (Labsystems) with an integration time of 100 msec delivering raw data (RLU: relative luminescence units). The following controls are included in the experiments, a maximal signal control, in which the cells are activated by LPS but only the 0.2% DMSO vehicle (and thus no compound) is added. […] A minimal signal control is also included in these experiments. Here, cells are not triggered. […] Where compounds are tested at 8 concentrations (1/3 serial dilution), EC50-values can be calculated by curve fitting of the means of the PIN data achieved for a compound at each test concentration.

MAPKAPK5 = biological target: T1, MAPKAPK5 (Homo sapiens, UniProt Q8IW41); assay: MAPKAP-K5 assay (FlashPlate kinase assay)
T1 sequence (Q8IW41 1-471 isoform Q8IW41-2): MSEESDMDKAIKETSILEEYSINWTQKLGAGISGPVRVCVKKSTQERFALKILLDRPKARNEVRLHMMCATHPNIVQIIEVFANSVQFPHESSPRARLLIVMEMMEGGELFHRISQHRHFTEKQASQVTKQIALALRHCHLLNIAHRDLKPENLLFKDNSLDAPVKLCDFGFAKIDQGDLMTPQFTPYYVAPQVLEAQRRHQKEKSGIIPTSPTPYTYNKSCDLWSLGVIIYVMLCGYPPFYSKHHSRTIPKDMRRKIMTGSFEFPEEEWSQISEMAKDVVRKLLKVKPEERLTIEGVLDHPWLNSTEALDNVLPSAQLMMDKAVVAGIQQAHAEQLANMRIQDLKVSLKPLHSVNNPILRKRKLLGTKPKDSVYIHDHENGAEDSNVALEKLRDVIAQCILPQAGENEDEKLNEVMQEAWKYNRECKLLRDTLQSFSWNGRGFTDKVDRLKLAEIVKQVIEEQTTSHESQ

Row | IC50 (MAPKAPK5) [nM] | SMILES | EC50 [1] [nM] | EC50 [2] [nM]
1 | > 1000 | Fc1cc(N2CCOCC2)ccc1Nc1ncc(-c2cn[nH]c2)n2ncnc12 [Compound 67, N-(2-Fluoro-4-morpholinophenyl)-5-(1H-pyrazol-4-yl)-[1,2,4]triazolo[1,5-a]pyrazin-8-amine] | > 1000 | > 1000
2 | 101 to 500 | NC(=O)c1cc(-c2cnc(Nc3ccc(OCCN4CCOCC4)cc3)c3ncnn23)cs1 [Compound 21, 4-(8-(4-(2-Morpholinoethoxy)phenylamino)-[1,2,4]triazolo[1,5-a]pyrazin-5-yl)thiophene-2-carboxamide] | 101 to 500 | > 1000
3 | > 1000 | Fc1cc(Nc2ncc(-c3cn[nH]c3)n3ncnc23)ccc1N1CCOCC1 [Compound 17, (3-Fluoro-4-morpholinophenyl)-5-(1H-pyrazol-4-yl)-[1,2,4]triazolo[1,5-a]pyrazin-8-amine] | > 1000 | > 1000
4 | > 1000 | CN1CCN(c2ccc(Nc3ncc(-c4cc[nH]c(=O)c4)n4ncnc34)cc2)CC1 [Compound 4, 4-(8-(4-(4-methylpiperazin-1-yl)phenylamino)-[1,2,4]triazolo[1,5a]pyrazin-5-yl)pyridin-2(1H)-one] | > 1000 | > 1000
5 | > 1000 | FC(F)(F)CN1CCN(c2ccc(Nc3ncc(-c4cn[nH]c4)n4ncnc34)cc2)CC1 [Compound 45] | > 1000 | > 1000
6 | > 1000 | c1cc(-c2cnc(Nc3ccc(N4CCOCC4)cc3)c3ncnn23)[nH]n1 [Compound 23, (4-Morpholin-4-yl-phenyl)-[5-(2H-pyrazol-3-yl)-[1,2,4]triazolo[1,5-a]pyrazin-8-yl]-amine] | > 1000 | > 1000
7 | > 1000 | Clc1cc(Nc2ncc(-c3cn[nH]c3)n3ncnc23)ccc1N1CCOCC1 [Compound 18] | 501 to 1000 | > 1000
8 | > 1000 | CC(C)N1CCN(c2ccc(Nc3ncc(-c4csc5ccccc45)n4ncnc34)cc2)CC1 [Compound 49] | > 1000 | > 1000
9 | 501 to 1000 | NC(=O)CN1CCC(c2ccc(Nc3ncc(-c4cn[nH]c4)n4ncnc34)cc2)CC1 [Compound 169, 2-(4-{4-[5-(1H-Pyrazol-4-yl)-[1,2,4]triazolo[1,5-a]pyrazin-8-ylamino]phenyl}-piperidin-1-yl)acetamide] | > 1000 | > 1000
10 | > 1000 | O=C1CCc2cc(-c3cnc(Nc4ccc(N5CCOCC5)cc4)c4ncnn34)ccc2N1 [Compound 39] | > 1000 | > 1000
11 | > 1000 | CN1CCN(c2ccc(Nc3ncc(-c4ccc(C(N)=O)cc4F)n4ncnc34)cc2)CC1 [Compound 8] | 501 to 1000 | > 1000
12 | 101 to 500 | CC(C)N1CCN(c2ccc(Nc3ncc(-c4ccc5c(c4)CNC5=O)n4ncnc34)cc2C(F)(F)F)CC1 [Compound 170, 5-{8-[4-(4-Isopropylpiperazin-1-yl)-3-trifluoromethylphenylamino]-[1,2,4]triazolo[1,5-a]pyrazin-5-yl}-2,3-dihydroisoindol-1-one] | > 1000 | > 1000
13 | 1 to 100 | NC(=O)c1cc(-c2cnc(Nc3ccc(N4CCOCC4)nc3)c3ncnn23)co1 [Compound 94] | > 1000 | > 1000
14 | > 1000 | Nc1ncc(-c2cnc(Nc3ccc(N4CCOCC4)cc3)c3ncnn23)cn1 [Compound 78] | > 1000 | 501 to 1000
15 | 101 to 500 | NC(=O)c1cc(-c2cnc(Nc3ccc(N4CCOCC4)cc3)c3ncnn23)cs1 [Compound 15, 4-[8-(4-Morpholin-4-yl-phenylamino)-[1,2,4]triazolo[1,5-a]pyrazin-5-yl]-thiophene-2-carboxylic acid amide] | 101 to 500 | 501 to 1000
16 | > 1000 | O=C1NCCc2cc(-c3cnc(Nc4ccc(N5CCOCC5)cc4)c4ncnn34)ccc21 [Compound 35, 6-(8-(4-Morpholinophenylamino)-[1,2,4]triazolo[1,5-a]pyrazin-5-yl)-3,4-dihydroisoquinolin-1(2H)-one] | 101 to 500 | > 1000
17 | 101 to 500 | C[C@@H]1CN(c2ccc(Nc3ncc(-c4csc(C(N)=O)c4)n4ncnc34)cc2)[C@@H](C)CN1C [Compound 32] | 501 to 1000 | 501 to 1000
18 | 1 to 100 | CC(C)N1CCN(c2ccc(Nc3ncc(-c4ccc5c(c4)CNC5=O)n4ncnc34)cc2Cl)CC1 [Compound 180] | > 1000 | > 1000
19 | 101 to 500 | O=C1NCc2cc(-c3cnc(Nc4cnc(N5CCOCC5)nc4)c4ncnn34)ccc21 [Compound 99] | > 1000 | 501 to 1000
20 | > 1000 | NC(=O)c1coc(-c2cnc(Nc3ccc(N4CCOCC4)cc3)c3ncnn23)c1 [Compound 29, 5-(8-(4-Morpholinophenylamino)-[1,2,4]triazolo[1,5-a]pyrazin-5-yl)furan-3-carboxamide] | > 1000 | > 1000
21 | 1 to 100 | CC(C)N1CCC(c2ccc(Nc3ncc(-c4ccc5c(c4)CNC5=O)n4ncnc34)cc2)CC1 [Compound 92, 5-{8-[4-(1-Isopropylpiperidin-4-yl)phenylamino]-[1,2,4]triazolo[1,5-a]pyrazin-5-yl}-2,3-dihydroisoindol-1-one] | 101 to 500 | > 1000
22 | 101 to 500 | O=C1NCc2cc(-c3cnc(Nc4ccc(OCCN5CCOCC5)cc4)c4ncnn34)ccc21 [Compound 65, 5-(8-(4-(2-Morpholinoethoxy)phenylamino)-[1,2,4]triazolo[1,5-a]pyrazin-5-yl)isoindolin-1-one] | 101 to 500 | > 1000
23 | > 1000 | CC(C)N1CCN(c2ccc(Nc3ncc(-c4csc5c(C(N)=O)cccc45)n4ncnc34)cc2)CC1 [Compound 81, 3-{8-[4-(4-Isopropylpiperazin-1-yl)phenylamino]-[1,2,4]triazolo[1,5-a]pyrazin-5-yl}benzo[b]thiophene-7-carboxylic acid amide] | > 1000 | > 1000
24 | > 1000 | FC(F)(F)CN1CCN(c2ccc(Nc3ncc(-c4cn[nH]c4)n4ncnc34)cn2)CC1 [Compound 44, [5-(1H-Pyrazol-4-yl)-[1,2,4]triazolo[1,5-a]pyrazin-8-yl]-{6-[4-(2,2,2-trifluoroethyl)piperazin-1-yl]pyridin-3-yl}amine] | > 1000 | > 1000
25 | 101 to 500 | NC(=O)c1cc(-c2cnc(Nc3ccc(N4CCOCC4)cc3)c3ncnn23)co1 [Compound 34, 4-(8-(4-Morpholinophenylamino)-[1,2,4]triazolo[1,5-a]pyrazin-5-yl)furan-2-carboxamide] | 1 to 100 | > 1000
26 | > 1000 | CC(C)N1CCN(c2ccc(Nc3ncc(-c4ccsc4)n4ncnc34)cc2)CC1 [Compound 51, [4-(4-Isopropylpiperazin-1-yl)phenyl]-(5-thiophen-3-yl-[1,2,4]triazolo[1,5-a]pyrazin-8-yl)amine] | 501 to 1000 | > 1000
27 | > 1000 | CC(C)N1CCN(c2ccc(Nc3ncc(-c4ccnc(CO)c4)n4ncnc34)cn2)CC1 [Compound 90, (4-{8-[6-(4-Isopropylpiperazin-1-yl)pyridin-3-ylamino]-[1,2,4]triazolo[1,5-a]pyrazin-5-yl}pyridin-2-yl)methanol] | > 1000 | > 1000
